Like-named read-outs stand apart in the source and are kept apart here.
What was measured:
[1] = biological target: T1, PfCCT(528–795) Y626F/Q636A (Plasmodium falciparum, UniProt Q8IEE9, DEL720-737/Q636A/Y626F); assay: Continuous coupled colorimetric enzyme activity assay (PPase/PNP/MESG); type: biochemical
Experimental: (§1) Enzyme activity measurements were performed as described previously, using a continuous coupled colorimetric assay with pyrophosphatase (PPase), purine nucleoside phosphorylase (PNP) auxiliary enzymes and the auxiliary substrate 7-methyl-6-thioguanosine (MESG)[16],[30],[39]. For CTP substrate titrations, CTP concentration was varied between 100 μM and 2 mM while ChoP concentration was kept constant at 5 mM. For ChoP titrations, ChoP concentration was varied between 0.5 mM and 20 mM while CTP concentration was kept constant at 1 mM. Initial velocities were calculated from the first 10% of the progress curves using phosphate calibration as reference. Due to the low activity of PfCCT(581–775) and PfCCT(528–795) T761A, T762A variants, the enzyme was used at 10 μM concentration and the slope of the absorbance change was determined after monitoring the reaction for 20 minutes. For measurements with PfCCT(528–795) K663A the following reagent concentrations were used in the enzyme assay: [PPase] = 0.17 U·ml^−1, [PNP] = 1.25 U·ml^−1, [MESG] = 0.1 mM, [Mg^2+] = 5 mM and [PfCCT(528–795) K663A] = 10 μM, to yield adequate signal-to-noise ratio (S/N > 10). Three independent experiments were performed for CTP and ChoP kinetic titrations of PfCCT(528–795) K663A. Global fit of CTP and ChoP kinetic titrations for each enzyme variant was performed in Origin 8.6 using Michaelis–Menten equation, to yield a single kcat parameter.

[2] = system: PfCCT(528–795) T761A; assay: as above; type: biochemical, Plasmodium falciparum
Experimental: as §1

[3] = system: PfCCT(528–795) T762A; assay: as above; type: biochemical, Plasmodium falciparum
Experimental: as §1

[4] = biological target: T2, PfCCT(581–775) (Plasmodium falciparum, UniProt P49587, DEL194-211); assay: Saturation Transfer Difference NMR (STD-NMR) ligand binding; conditions: 50 µM PfCCT(581-775), 283 K
T2 construct: The PfCCT(581–775) construct was obtained using previously described PfCCT(528–795); 6xHis (TEV-cleavable) (N, cleaved yes); made in house; host or cells: E. coli BL21 (DE3)
Experimental: In order to provide structural insights into the mechanism of action of PfCCT, we set out to crystallize the constitutively active C-terminal catalytic domain of PfCCT. Several constructs were tested and our attempts were successful only in case of PfCCT(581–775) that corresponds to the exact region visible in the crystal structure of RnCCT (PDB: 3HL4)[20] (Fig. 1a). […] (Table 1 and Supplementary Fig. S1). We further assessed the functionality of PfCCT(581–775) by characterizing its substrate and product binding ability. […] Saturation Transfer Difference Nuclear Magnetic Resonance (STD-NMR) experiments indicated STD signal of CTP, ChoP and CDPCho bound to PfCCT(581–775) at 1 mM, 4 mM and 1 mM concentrations, respectively (Supplementary Fig. S1). This latter result is consistent with previously observed unusually low ChoP affinity of PfCCT[16]. We concluded that PfCCT(581–775) is compatible with substrate and product recognition and may be amenable to structural studies provided that its compromised enzymatic function is taken into account in structure-based interpretations. It is likely that the drop of PfCCT(581–775) enzyme activity is due to the elimination of the C-terminal flanking part as similarly located truncations in the RnCCT catalytic domain also led to severe loss of activity[28],[29]. […]
Kinetic data are fitted with the Michaelis–Menten equation. […] Values of the measured kinetic and thermodynamic parameters and their errors […]
(black) of 50 µM PfCCT(581-775) in 20 mM Tris/HCl pH 7.5, 150 mM NaCl and 2 mM EtSH are shown in presence of c) 1 mM CTP, d) 4 mM ChoP and e) 1 mM CDPCho. […] The 1D 1H STD-NMR spectra were recorded on a Bruker 500 MHz instrument at 283 K with 256 scans and selective saturation of protein resonances at 0.922 ppm using a series of Gaussian shaped pulses (20 ms, 1 ms delay between the pulses). […] All 1D 1H NMR spectra were recorded […]

[5] = biological target: T3, PfCCT(528–795) (Plasmodium falciparum, UniProt P49587, DEL194-211); design: method as in Nagy et al.[16]; conditions: ref Nagy et al.[16], cited from earlier work
T3 construct: previously described PfCCT(528–795) lacking the lysine-rich Plasmodium specific loop (720–737); His-tag; made in house

[6] = biological target: T3, PfCCT(528–795); assay: Equilibrium ligand binding by isothermal titration calorimetry (ITC); conditions: 20 °C
Experimental: (§2) Calorimetric measurements were performed on an ITC 200 titration calorimeter (Malvern) at 20 °C. The protein samples were dialyzed against 20 mM HEPES/NaOH pH 7.5, 100 mM NaCl, including 0.5 mM Tris(2-carboxyethyl)phosphine (TCEP) as reducing agent. CTP and CDPCho were diluted from a concentrated stock into the dialysis buffer with subsequent pH adjustment. Concentration of the titrating nucleotide ligands were determined using molar extinction coefficients 9000 M^−1 cm^−1 at 271 nm for CTP and 5000 M^−1 cm^−1 at 260 nm for CDPCho[16]. In the experimental setup, the cell of the instrument was filled with protein and the syringe with the ligand. The titrations typically included 19 steps of injection with 2 μl of ligand per injection spaced 180 s apart from each other, with the injection syringe rotating at 750 r.p.m. The data were analyzed using MICROCAL ORIGIN software following the directions of the manufacturer. To account for dilution, the invariant integrated heat value of the last 3–5 data points was subtracted from all data points. The one set of independent sites binding model was applied to data for determination of thermodynamic parameters: dissociation constant (Kd), stoichiometry (N), enthalpy (ΔH) and entropy (ΔS). Due to the low apparent affinity, the N value was fixed to a constant value of 1 in CTP titrations to PfCCT(528–795) K663A according to the low c value ITC data analysis protocol[40],[41]. For CTP and CDPCho titrations of PfCCT(528–795) K663A, and CTP titrations of T761A and T762A variants of PfCCT(528-795), mean and SD from two independent experiments are provided, whereas for CDPCho titrations of PfCCT(581–775) and PfCCT(528-795) mean and SD from three independent experiments are provided. For PfCCT(528-795) (Y626F/Q636A), errors of model fit to data of a single ligand binding experiment are given.

[7] = biological target: T4, PfCCT(528–795) K663A (Plasmodium falciparum, UniProt Q8IEE9, DEL720-737/K663A); assay: as above; conditions: 20 °C
T4 sequence (Q8IEE9 528-795, stated change not applied): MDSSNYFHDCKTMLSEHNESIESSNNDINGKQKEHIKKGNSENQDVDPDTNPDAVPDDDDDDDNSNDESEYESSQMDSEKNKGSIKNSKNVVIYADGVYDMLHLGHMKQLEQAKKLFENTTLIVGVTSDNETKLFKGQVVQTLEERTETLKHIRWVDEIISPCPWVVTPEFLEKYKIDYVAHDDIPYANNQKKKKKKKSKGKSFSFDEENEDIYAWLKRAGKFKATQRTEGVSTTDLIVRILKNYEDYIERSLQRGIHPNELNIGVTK
Experimental: as §2

[8] = biological target: T1, PfCCT(528–795) Y626F/Q636A; assay: as above; conditions: 20 °C, pH 7.5, single experiment, errors of model fit
Experimental: as §2

[9] = biological target: T2, PfCCT(581–775); assay: as above; conditions: 20 °C
Experimental: as §2

[10] = biological target: T2, PfCCT(581–775); assay: Continuous coupled colorimetric enzyme activity assay (PPase/PNP/MESG); type: biochemical; conditions: CTP varied 100 μM–2 mM, ChoP fixed 5 mM
Experimental: as §1

[11] = biological target: T4, PfCCT(528–795) K663A; assay: as above; type: biochemical; conditions: refers to a phosphohydrolase activity; ChoP fixed 5 mM; read-out: KM,CTP
Text: The presence of Cho in the active site at least partially stabilizes the K663 side chain, while ChoP or CDPCho accommodation renders this residue fully visualized. The K663 terminal amino moiety points towards the phosphate group of ChoP or both phosphate moieties of CDPCho, in somewhat different conformations (Fig. 3e and Supplementary Fig. S3). These structural insights showing variable detection and interactions of K663 prompted us to an in-depth definition of its role throughout the course of the catalytic mechanism. We interrogated the functionality of this residue by site directed mutagenesis followed by biochemical analysis. […] The enzymatic activity was monitored by a coupled pyrophosphatase (PPase) assay and consisted of two consecutive steps: the cleavage of the byproduct pyrophosphate into two phosphates and the addition of phosphates to a nucleotide derivative, resulting a chromophore substance. […] The accumulation of free phosphate in the absence of the substrate, ChoP, argued for a CTP phosphohydrolase (CTP → CDP + Pi) activity of the K663A mutant (Supplementary Fig. S4). […] For reliable characterization of ligand interactions of this lysine, we measured the equilibrium ligand binding of CDPCho and CTP to PfCCT(528–795) K663A (Table 2 and Supplementary Fig. S4). […]

[12] = biological target: PfCCT(528–795) T761A; assay: Equilibrium ligand binding by isothermal titration calorimetry (ITC); design: species or system Plasmodium falciparum; conditions: 20 °C, pH 7.5, read-out: Kd,CTP
Experimental: as §2, with “Due to the low apparent affinity, the N value was fixed to a constant value of 1 in CTP titrations to PfCCT(528–795) K663A according to the low c value ITC data analysis protocol[40],[41]. For CTP and CDPCho titrations of PfCCT(528–795) K663A, and CTP titrations of T761A and T762A variants of PfCCT(528-795), mean and SD from two independent experiments are provided, whereas for CDPCho titrations of PfCCT(581–775) and PfCCT(528-795) mean and SD from three independent experiments are provided. For PfCCT(528-795) (Y626F/Q636A), errors of model fit to data of a single ligand binding experiment are given.” left out

[13] = biological target: PfCCT(528–795) T762A; assay: as above; design: species or system Plasmodium falciparum; conditions: 20 °C, pH 7.5, read-out: Kd,CTP
Experimental: as §2, with “Due to the low apparent affinity, the N value was fixed to a constant value of 1 in CTP titrations to PfCCT(528–795) K663A according to the low c value ITC data analysis protocol[40],[41]. For CTP and CDPCho titrations of PfCCT(528–795) K663A, and CTP titrations of T761A and T762A variants of PfCCT(528-795), mean and SD from two independent experiments are provided, whereas for CDPCho titrations of PfCCT(581–775) and PfCCT(528-795) mean and SD from three independent experiments are provided. For PfCCT(528-795) (Y626F/Q636A), errors of model fit to data of a single ligand binding experiment are given.” left out

[14] = ChoP varied 0.5–20 mM, CTP fixed 1 mM, read-out: KM,ChoP
[15] = CTP varied 100 μM–2 mM, ChoP fixed 5 mM, read-out: KM,CTP

T1 sequence (Q8IEE9 528-795, stated change not applied): as above

SMILES: C[N+](C)(C)CCOP(=O)(O)O [ChoP, phosphocholine]
- Km [1, 14]: 1600 µM
- Km [2, 14]: 3.7 mM
- Km [3, 14]: 2.1 mM
- STD-NMR signal of ligand bound to enzyme ([4]; ligand 4 mM): STD signal
- Km ([5]; read-out: KM,ChoP): 1.95 mM

SMILES: C[N+](C)(C)CCOP(=O)(O)OP(=O)([O-])OC[C@H]1O[C@@H](n2ccc(N)nc2=O)[C@H](O)[C@@H]1O [CDPCho, CDP-choline]
- ΔGCDP-Cho ([6]; pH 7.5): -6.0 ± 0.2 kcal/mol
- ΔHCDP-Cho ([6]; pH 7.5): -16.1 ± 0.1 kcal/mol
- −TΔSCDP-Cho ([6]; pH 7.5): 10.1 ± 0.1 kcal/mol
- Kd ([6]; pH 7.5, read-out: Kd,CDP-Cho): 34 ± 1 µM
- ΔGCDP-Cho ([7]; pH 7.5): -5.0 ± 1.4 kcal/mol
- ΔHCDP-Cho ([7]; pH 7.5): -11.4 ± 1.5 kcal/mol
- −TΔSCDP-Cho ([7]; pH 7.5): 6.5 ± 1.6 kcal/mol
- Kd ([7]; pH 7.5, read-out: Kd,CDP-Cho): 210 ± 60 µM
- ΔGCDP-Cho [8]: -6.2 ± 0.1 kcal/mol
- ΔHCDP-Cho [8]: -12.0 ± 0.2 kcal/mol
- −TΔSCDP-Cho [8]: 5.8 ± 0.1 kcal/mol
- Kd ([8]; read-out: Kd,CDP-Cho): 22.2 ± 0.2 µM
- ΔGCDP-Cho ([9]; pH 7.5): -5.8 ± 0.1 kcal/mol
- ΔHCDP-Cho ([9]; pH 7.5): -10.5 ± 0.3 kcal/mol
- −TΔSCDP-Cho ([9]; pH 7.5): 4.7 ± 0.4 kcal/mol
- Kd ([9]; pH 7.5, read-out: Kd,CDP-Cho): 47 ± 5 µM
- STD-NMR signal of ligand bound to enzyme ([4]; ligand 1 mM): STD signal

SMILES: Nc1ccn([C@@H]2O[C@H](COP(=O)(O)OP(=O)(O)OP(=O)(O)O)[C@@H](O)[C@H]2O)c(=O)n1 [CTP]
- Km [1, 15]: 170 ± 10 µM
- Km [10]: 1.1 mM
- Km [11]: 70 ± 20 µM
- Km [2, 15]: 1.27 mM
- Km [3, 15]: 0.61 ± 0.07 mM
- ΔGCTP ([6]; pH 7.5): -5.7 ± 0.1 kcal/mol
- ΔHCTP ([6]; pH 7.5): -8.6 ± 0.3 kcal/mol
- −TΔSCTP ([6]; pH 7.5): 3.0 ± 0.4 kcal/mol
- Kd ([6]; pH 7.5, read-out: Kd,CTP): 60 ± 2 µM
- ΔGCTP ([7]; pH 7.5, N fixed to 1): -4.4 ± 0.1 kcal/mol
- −TΔSCTP ([7]; pH 7.5, N fixed to 1): -10.5 ± 0.6 kcal/mol
- Kd ([7]; pH 7.5, N fixed to 1 (low c value protocol), read-out: Kd,CTP): 520 ± 50 µM
- ΔGCTP [8]: -5.7 ± 0.1 kcal/mol
- ΔHCTP [8]: -10.8 ± 0.1 kcal/mol
- −TΔSCTP [8]: 5.1 ± 0.2 kcal/mol
- Kd ([8]; read-out: Kd,CTP): 60 ± 2 µM
- Kd [12]: 170 ± 35 µM
- Kd [13]: 170 ± 12 µM
- STD-NMR signal of ligand bound to enzyme ([4]; ligand 1 mM): STD signal
- Km ([5]; read-out: KM,CTP): 0.17 ± 0.02 mM

From article PMC6060094, “Structural determinants of the catalytic mechanism of Plasmodium CCT, a key enzyme of malaria lipid biosynthesis” (Scientific Reports, 2018)
